{"source": "patent US20230181578A1", "about": "“MODULATION OF MIXED LINEAGE KINASE DOMAIN-LIKE PROTEIN SIGNALING” (EBERHARD KARLS UNIVERSITÄT TÜBINGEN, priority 2020, published 2023)", "key": {"HT-29": {"tested_on": "HT-29", "test": "Necroptosis inhibition assay, TSZ-treated human HT-29 cells", "assay_type": "cell-based", "text": "(§1) A-B) Dose-dependence of the inhibitory effect of MBA-h1 (A) or MBA-m1M (B) on necroptotic cell death in human (HT-29) and mouse (NIH-3T3) cells. C-D) Effect of MBA-h1 (C) or MBA-m1 (D) on MLKL phosphorylation. E-F) Effect of MBA-h1 (E) or MBA-m1 (F) on MLKL translocation to the plasma membrane. HT-29 (C and E) or NIH-3T3 (D and F) wt cells were TSZ-treated in the presence or not of the inhibitors. NSA was used as a control in C and E. G) Inhibitory effect of MBA-m1 in MLKL ko cells transfected with mMLKL2 or the mutant mMLKL2_I84A_F87A. Cells were transfected with the different variants of MLKL-GFP. The dead cell population was calculated from transfected cells. Individual values from at least three independent experiments are shown. H-I) MBA-m1 ameliorates dermatitis in Tnfr1-KO HoipE-KO mice. H) Representative images of mice before and after 2 weeks' treatment with MBA-m1. I) Severity score of dermatitis assessed after and before treatment with the inhibitor. Tnfr1-KO HoipE-KO (n=3). To quantify the sore of region affected, 0 values were assigned to no lesion, and 1 values were assigned when lesions were found in either neck, back, flank or head, being the sum of these elements taken as the final score. To quantify the character of lesions, 0 values were assigned to no lesions, 1 to excoriations one or small punctuate crust, 2 to multiple punctuate crust or coalescing crust, 3 to erosion, ulceration or bleeding. Data are presented as mean values±s.e.m.\n(§2) To evaluate the necroptotic potential of the different mMLKL isoforms, each of the three isoforms were re-expressed in NIH-3T3 MLKL knock out (ko) cells following induction of necroptosis with a mixture of TNF, a Smac mimetic compound (LCL-161) and the pan-caspase inhibitor zVAD (TSZ), which is the most commonly used necroptosis-inducing cocktail. The inventors quantified cell death by flow cytometry (FIG. 1B) and confocal microscopy (FIG. 1C) using propidium iodide (PI) as a marker of irreversible plasma membrane disruption. As expected, mMLKL3 was intrinsically active, on account of its lack of the psK domain. […]"}, "hMLKL1": {"biological_target": "T1, hMLKL1 (Homo sapiens, UniProt Q8NB16)", "T1 construct": "GFP; expressed in transfected cells; host or cells: HT-29 MLKL ko cells", "T1 sequence (Q8NB16 1-471)": "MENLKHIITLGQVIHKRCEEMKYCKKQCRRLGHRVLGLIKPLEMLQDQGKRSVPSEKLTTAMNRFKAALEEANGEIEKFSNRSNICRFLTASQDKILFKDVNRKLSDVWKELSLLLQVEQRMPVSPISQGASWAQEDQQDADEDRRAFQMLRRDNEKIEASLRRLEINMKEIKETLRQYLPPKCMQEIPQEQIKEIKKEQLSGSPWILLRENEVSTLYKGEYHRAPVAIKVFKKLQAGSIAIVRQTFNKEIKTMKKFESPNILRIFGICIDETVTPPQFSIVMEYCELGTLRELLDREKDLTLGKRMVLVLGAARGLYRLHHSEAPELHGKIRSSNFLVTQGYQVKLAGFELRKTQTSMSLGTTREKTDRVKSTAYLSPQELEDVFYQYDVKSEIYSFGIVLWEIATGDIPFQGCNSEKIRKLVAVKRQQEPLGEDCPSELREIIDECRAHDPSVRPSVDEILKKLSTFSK", "test": "Necroptosis inhibition in HT-29 MLKL ko cells re-expressing hMLKL1", "assay_type": "cell-based", "conditions": "HT-29 MLKL ko re-expressing hMLKL1", "text": "The species-specificity was expected considering the large difference in the He/groove interactions between mouse and human MLKL (FIGS. 3 and 4)."}, "phosphorylated MLKL [1]": {"tested_on": "phosphorylated MLKL", "test": "MLKL phosphorylation, Western-blot, TSZ-treated HT-29 wt cells", "assay_type": "cell-based, human", "conditions": "FIG. 6C", "text": "as §1, with “Tnfr1-KO HoipE-KO (n=3).” left out, “Data are presented as mean values±s.e.m.” left out"}, "MLKL [2]": {"tested_on": "MLKL", "test": "MLKL translocation to the plasma membrane, TSZ-treated HT-29 wt cells", "assay_type": "cell-based, human", "conditions": "FIG. 6E", "text": "as §1, with “Tnfr1-KO HoipE-KO (n=3).” left out, “Data are presented as mean values±s.e.m.” left out"}, "NIH-3T3 WT cells": {"tested_on": "NIH-3T3 WT cells", "test": "Necroptosis inhibition assay, TSZ-treated mouse NIH-3T3 WT cells", "assay_type": "cell-based", "text": "as §1, §2"}, "mMLKL2": {"biological_target": "T2, mMLKL2 (Mus musculus, UniProt Q9D2Y4)", "T2 construct": "GFP; expressed in transfected cells; host or cells: NIH-3T3 MLKL ko cells", "T2 sequence (Q9D2Y4 1-464 isoform Q9D2Y4-2)": "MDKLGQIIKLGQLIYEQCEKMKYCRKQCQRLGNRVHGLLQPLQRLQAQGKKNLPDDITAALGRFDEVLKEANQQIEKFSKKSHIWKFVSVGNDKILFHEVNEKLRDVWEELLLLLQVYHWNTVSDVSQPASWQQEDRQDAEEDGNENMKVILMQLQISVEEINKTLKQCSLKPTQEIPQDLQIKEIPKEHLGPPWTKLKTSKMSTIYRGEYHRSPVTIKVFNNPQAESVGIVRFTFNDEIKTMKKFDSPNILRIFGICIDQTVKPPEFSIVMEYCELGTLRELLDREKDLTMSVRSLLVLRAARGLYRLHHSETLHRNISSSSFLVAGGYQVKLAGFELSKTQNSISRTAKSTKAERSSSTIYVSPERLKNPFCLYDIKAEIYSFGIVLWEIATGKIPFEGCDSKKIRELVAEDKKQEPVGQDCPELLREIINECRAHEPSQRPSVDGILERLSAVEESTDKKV", "test": "Necroptosis inhibition in NIH MLKL ko cells containing mMLKL2", "assay_type": "cell-based", "text": "as §1, with “Tnfr1-KO HoipE-KO (n=3).” left out, “Data are presented as mean values±s.e.m.” left out"}, "phosphorylated MLKL [3]": {"tested_on": "phosphorylated MLKL", "test": "MLKL phosphorylation, Western-blot, TSZ-treated NIH-3T3 wt cells", "assay_type": "cell-based, mouse", "conditions": "FIG. 6D", "text": "as §1, with “Tnfr1-KO HoipE-KO (n=3).” left out, “Data are presented as mean values±s.e.m.” left out"}, "MLKL [4]": {"tested_on": "MLKL", "test": "MLKL translocation to the plasma membrane, TSZ-treated NIH-3T3 wt cells", "assay_type": "cell-based, mouse", "conditions": "FIG. 6F", "text": "as §1, with “Tnfr1-KO HoipE-KO (n=3).” left out, “Data are presented as mean values±s.e.m.” left out"}, "mMLKL2_I84A_F87A": {"biological_target": "T3, mMLKL2_I84A_F87A (Mus musculus, UniProt Q9D2Y4, F87A/I84A)", "T3 construct": "GFP; expressed in transfected cells", "T3 sequence (Q9D2Y4 1-464 isoform Q9D2Y4-2 I84A/F87A)": "T2 sequence (Q9D2Y4 1-464 isoform Q9D2Y4-2) with I84A, F87A", "test": "Cell death assay in MLKL ko cells transfected with mutant mMLKL2_I84A_F87A", "assay_type": "cell-based", "conditions": "FIG. 6G", "text": "as §1, with “Tnfr1-KO HoipE-KO (n=3).” left out, “Data are presented as mean values±s.e.m.” left out"}, "Tnfr1KO;HoipEKO mice": {"tested_on": "Tnfr1KO;HoipEKO mice", "test": "Necroptosis-driven dermatitis in Tnfr1KO;HoipEKO mice", "assay_type": "in vivo, mouse", "conditions": "treated daily for three weeks from 30 to 40 days of age, end of treatment", "text": "as §1, with “H) Representative images of mice before and after 2 weeks' treatment with MBA-m1.” left out, “values±s.e.m. […]” for “values±s.e.m.”"}}, "note": "Numbering of substitutions follows the chain as printed.", "data": [{"smiles": "CN1CCN(c2ccc(-c3cccc(NC(=O)c4ccc5ccccc5c4)c3)nn2)CC1", "note": "[MBA-h1, N-[3-[6-(4-methylpiperazin-1-yl)pyridazin-3-yl]phenyl]naphthalene-2-carboxamide]", "values": [{"measurement": "concentrations at which inhibitory activity was observed", "setting": "HT-29; HT-29 cells, FIG. 6A", "value": "lower than 10 μM"}, {"measurement": "toxicity", "setting": "HT-29; at inhibitory concentrations, FIG. 6A", "value": "without evidence of toxicity"}, {"measurement": "inhibition of necroptosis", "setting": "HT-29; human HT-29 cells, dose-dependent (FIG. 6A)", "value": "specifically inhibited necroptosis"}, {"measurement": "inhibition of necroptosis", "setting": "hMLKL1", "value": "inhibited necroptosis"}, {"measurement": "effect on MLKL phosphorylation", "setting": "phosphorylated MLKL [1]", "value": "none of the compounds blocked the phosphorylation of MLKL"}, {"measurement": "effect on MLKL translocation to the plasma membrane", "setting": "MLKL [2]", "value": "potently interfered with MLKL translocation to the plasma membrane"}]}, {"smiles": "COc1ccc2nc(C)cc(Nc3ccc(Oc4ccc5ccccc5c4)c(Cl)c3)c2c1", "note": "[MBA-m1, N-(3-chloro-4-naphthalen-2-yloxyphenyl)-6-methoxy-2-methylquinolin-4-amine]", "values": [{"measurement": "concentrations at which necroptosis is inhibited", "setting": "NIH-3T3 WT cells; NIH-3T3 cells, FIG. 6B, compared with MBA-h1 (lower than 10 μM)", "value": "able to inhibit necroptosis at similar concentrations"}, {"measurement": "concentrations at which toxicity was presented", "setting": "NIH-3T3 WT cells; higher concentrations, FIG. 6B", "value": "12.5 to 50", "unit": "µM"}, {"measurement": "inhibition of necroptosis", "setting": "NIH-3T3 WT cells; mouse NIH-3T3 WT cells, dose-dependent (FIG. 6B)", "value": "specifically inhibited necroptosis"}, {"measurement": "inhibition of necroptosis", "setting": "mMLKL2", "value": "had the same effect"}, {"measurement": "effect on MLKL phosphorylation", "setting": "phosphorylated MLKL [3]", "value": "none of the compounds blocked the phosphorylation of MLKL"}, {"measurement": "effect on MLKL translocation to the plasma membrane", "setting": "MLKL [4]", "value": "potently interfered with MLKL translocation to the plasma membrane"}, {"measurement": "inhibition of cell death mediated by mutant mMLKL2_I84A_F87A", "setting": "mMLKL2_I84A_F87A", "value": "inert to inhibition"}, {"measurement": "dermatitis, severity score of skin lesions", "setting": "Tnfr1KO;HoipEKO mice", "value": "significantly ameliorated dermatitis"}]}, {"smiles": "COc1nccnc1NS(=O)(=O)c1ccc(NC(=O)/C=C/c2ccc([N+](=O)[O-])s2)cc1", "note": "[NSA, reference compound]", "values": [{"measurement": "effect on MLKL translocation to the plasma membrane", "setting": "MLKL [2]", "value": "interfered with MLKL translocation to the plasma membrane"}]}]}
